Common to all, as to assay type: functional
Experiment [1] deals with Leishmania donovani. Nature of the experiment: Antileishmanial activity against Leishmania donovani promastigotes at 8 ug/ml.
The test system of experiment [2] is Leishmania donovani. Nature of the experiment: Antileishmanial activity against Leishmania donovani promastigotes at 4 ug/ml.
In experiment [3] the test system is Leishmania donovani. As to the kind of experiment: Antileishmanial activity against Leishmania donovani amastigotes at 20 ug/ml.
Experiment [4] deals with Leishmania donovani. Nature of the experiment: Antileishmanial activity against Leishmania donovani promastigotes at 2 ug/ml.

Here are results for nine compounds from ChEMBL document CHEMBL1147709, “Arylanthranilodinitriles: a new biaryl class of antileishmanial agents” (2006).

The structures appear in SMILES notation.

The inhibition is the percentage by which the read-out fell short of the control. Higher therefore signals strong suppression.

For the compound `CSc1c(C#N)c(N)c(C#N)c(C)c1-c1ccc(C(F)(F)F)cc1`, 8 µg/mL produced 83% inhibition in the experiment on Leishmania donovani [1]. Also, the inhibition at 4 µg/mL with Leishmania donovani [2] worked out at 67%. For the same compound, in the experiment with Leishmania donovani [3], at 20 µg/mL the inhibition was 70%.
Turning to `CSc1c(C)c(-c2ccccc2)c(C#N)c(N)c1C#N`, in the experiment with Leishmania donovani [1], the inhibition at 8 µg/mL came out at 48%. This compound also came in with an inhibition at 4 µg/mL in the experiment with Leishmania donovani [2] of 25%. The compound also showed an inhibition at 20 µg/mL in the experiment with Leishmania donovani [3] of 23%.
The corresponding values for `CSc1c(C#N)c(N)c(C#N)c(C)c1-c1ccccc1F` are 60%, 37% and 61%.
On to `CSc1c(C#N)c(N)c(C#N)c(C)c1-c1ccc(F)cc1`, for which 8 µg/mL produced 65% inhibition in the experiment with Leishmania donovani [1]. The inhibition at 4 µg/mL in the experiment with Leishmania donovani [2] was 43%. This compound also displayed an inhibition at 20 µg/mL with Leishmania donovani [3] of 62%.
Taken in the same sequence, the figures for `COc1ccc(-c2c(C)c(C#N)c(N)c(C#N)c2SC)c(OC)c1` were 59%, 36% and 56%.
Taken in the same sequence, the figures for `CSc1c(C)c(-c2ccc(Cl)cc2)c(C#N)c(N)c1C#N` were 50%, 46% and 10%.
As for `COc1ccc(-c2c(C)c(C#N)c(N)c(C#N)c2SC)cc1OC`, in the experiment on Leishmania donovani [1], the inhibition at 8 µg/mL worked out at 69%. For the same compound, in the experiment on Leishmania donovani [2], the inhibition at 4 µg/mL was determined as 60%. In the experiment on Leishmania donovani [3], this compound had an inhibition at 20 µg/mL of 53%.
`COc1ccc(-c2c(C)c(SC)c(C#N)c(N)c2C#N)cc1` registered an inhibition at 8 µg/mL in the experiment on Leishmania donovani [1] of 53%. In the experiment with Leishmania donovani [2], this compound had an inhibition at 4 µg/mL of 31%. Moreover, the inhibition at 20 µg/mL in the experiment on Leishmania donovani [3] came to 25%.
In the experiment with Leishmania donovani [4], `N=C(N)c1ccc(OCCCCCOc2ccc(C(=N)N)cc2)cc1` [PENTAMIDINE] returned an inhibition at 2 µg/mL of 71%. This compound yielded an inhibition at 20 µg/mL in the experiment with Leishmania donovani [3] of 48%.
